This is an account of results in ChEMBL document CHEMBL1240341 (Leukemia, 2009).

Test [1] deals with Serine/threonine-protein kinase TBK1 (Homo sapiens, UniProt Q9UHD2). Put plainly: Inhibition of TBK1.
Test [2] deals with Tyrosine-protein kinase ABL2 (Homo sapiens, UniProt P42684). The test can be described thus: Inhibition of ABL2.
Test [3] deals with Tyrosine-protein kinase BTK (Homo sapiens, UniProt Q06187). The test can be described thus: Inhibition of BTK.
A further test addresses Activated CDC42 kinase 1 (Homo sapiens, UniProt Q07912). The test can be described thus: Inhibition of TNK2.
For test [4], the target named is Tyrosine-protein kinase HCK (Homo sapiens, UniProt P08631). Put plainly: Inhibition of HCK.
Test [5] deals with Tyrosine-protein kinase Tec (Homo sapiens, UniProt P42680). Put plainly: Inhibition of TEC.
For test [6], the target named is Tyrosine-protein kinase FRK (Homo sapiens, UniProt P42685). The test can be described thus: Inhibition of FRK.
Test [7] has as its target Tyrosine-protein kinase CSK (Homo sapiens, UniProt P41240). Put plainly: Inhibition of CSK.
Test [8] has as its target Tyrosine-protein kinase Fgr (Homo sapiens, UniProt P09769). Put plainly: Inhibition of FGR.
Test [9] deals with Tyrosine-protein kinase TXK (Homo sapiens, UniProt P42681). The test can be described thus: Inhibition of TXK.
The target in a further test is Misshapen-like kinase 1 (Homo sapiens, UniProt Q8N4C8). Put plainly: Inhibition of MINK1.
The target of test [10] is T1, BDNF/NT-3 growth factors receptor (Homo sapiens, UniProt Q16620). The test can be described thus: Inhibition of TRKB.
Test [11] has as its target Interleukin-1 receptor-associated kinase 4 (Homo sapiens, UniProt Q9NWZ3). Put plainly: Inhibition of IRAK4.
Test [12] addresses Tyrosine-protein kinase Blk (Mus musculus, UniProt P16277). The test can be described thus: Inhibition of mouse BLK.
Test [13] has as its target Calcium/calmodulin-dependent protein kinase type II subunit gamma (Homo sapiens, UniProt Q13555). The test can be described thus: Inhibition of CAMK2G.
In test [14] the target is T2, High affinity nerve growth factor receptor (Homo sapiens, UniProt P04629). Put plainly: Inhibition of TRKA.
Test [15] deals with T3, Angiopoietin-1 receptor (Homo sapiens, UniProt Q02763). The test can be described thus: Inhibition of TIE2.
The target in test [16] is Mitogen-activated protein kinase kinase kinase kinase 2 (Homo sapiens, UniProt Q12851). The test can be described thus: Inhibition of MAP4K2.
Test [17] addresses Serine/threonine-protein kinase 24 (Homo sapiens, UniProt Q9Y6E0). The test can be described thus: Inhibition of STK24.
Test [18] deals with Mitogen-activated protein kinase kinase kinase kinase 5 (Homo sapiens, UniProt Q9Y4K4). The test can be described thus: Inhibition of MAP4K5.
Test [19] has as its target Protein-tyrosine kinase 2-beta (Homo sapiens, UniProt Q14289). Put plainly: Inhibition of PTK2B.
Test [20] concerns the target T2, High affinity nerve growth factor receptor. The test can be described thus: Inhibition of TRKA at 10 uM.
The target in test [21] is Interleukin-1 receptor-associated kinase 4 (Homo sapiens) (UniProt Q9NWZ3). The test can be described thus: Inhibition of IRAK4 at 10 uM.
The target of test [22] is T1, BDNF/NT-3 growth factors receptor. The test can be described thus: Inhibition of TRKB at 10 uM.
The target in test [23] is T3, Angiopoietin-1 receptor. Put plainly: Inhibition of TIE2 at 10 uM.
Test [24] addresses Tyrosine-protein kinase receptor UFO (Homo sapiens) (UniProt P30530). The test can be described thus: Inhibition of AXL at 10 uM.
The target of test [25] is Tyrosine-protein kinase Fes/Fps (Homo sapiens) (UniProt P07332). Put plainly: Inhibition of FES at 10 uM.

T3 sequence (Q02763 whole entry): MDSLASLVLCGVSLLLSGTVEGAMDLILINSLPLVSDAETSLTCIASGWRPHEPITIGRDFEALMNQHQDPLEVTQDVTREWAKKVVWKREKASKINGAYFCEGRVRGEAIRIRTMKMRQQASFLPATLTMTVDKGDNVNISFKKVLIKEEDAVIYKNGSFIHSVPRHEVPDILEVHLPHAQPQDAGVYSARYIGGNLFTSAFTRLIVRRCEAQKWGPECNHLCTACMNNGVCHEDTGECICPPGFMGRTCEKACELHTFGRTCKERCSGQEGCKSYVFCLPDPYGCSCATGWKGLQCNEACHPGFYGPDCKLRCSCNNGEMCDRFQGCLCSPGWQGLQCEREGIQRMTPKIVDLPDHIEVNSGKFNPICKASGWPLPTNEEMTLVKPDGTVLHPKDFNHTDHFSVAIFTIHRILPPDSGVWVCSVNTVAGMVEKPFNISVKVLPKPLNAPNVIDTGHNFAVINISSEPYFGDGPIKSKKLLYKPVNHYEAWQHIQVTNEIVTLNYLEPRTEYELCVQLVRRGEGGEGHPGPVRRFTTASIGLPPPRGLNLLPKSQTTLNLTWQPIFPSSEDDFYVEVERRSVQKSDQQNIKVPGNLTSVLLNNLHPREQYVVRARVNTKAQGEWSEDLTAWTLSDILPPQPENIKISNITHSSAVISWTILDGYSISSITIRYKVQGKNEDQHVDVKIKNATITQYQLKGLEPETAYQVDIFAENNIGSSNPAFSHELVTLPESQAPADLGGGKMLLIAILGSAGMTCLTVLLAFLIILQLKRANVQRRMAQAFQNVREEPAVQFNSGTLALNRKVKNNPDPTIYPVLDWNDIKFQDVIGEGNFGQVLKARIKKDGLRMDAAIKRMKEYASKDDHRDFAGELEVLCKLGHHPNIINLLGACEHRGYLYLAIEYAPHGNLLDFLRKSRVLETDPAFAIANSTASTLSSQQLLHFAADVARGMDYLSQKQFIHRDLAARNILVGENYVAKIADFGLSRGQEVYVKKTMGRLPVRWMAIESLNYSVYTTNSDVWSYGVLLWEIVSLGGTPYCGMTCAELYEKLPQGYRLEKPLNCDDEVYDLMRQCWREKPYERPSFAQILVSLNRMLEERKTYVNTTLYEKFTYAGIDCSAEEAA
Sequence of Tyrosine-protein kinase Blk (P16277 whole entry): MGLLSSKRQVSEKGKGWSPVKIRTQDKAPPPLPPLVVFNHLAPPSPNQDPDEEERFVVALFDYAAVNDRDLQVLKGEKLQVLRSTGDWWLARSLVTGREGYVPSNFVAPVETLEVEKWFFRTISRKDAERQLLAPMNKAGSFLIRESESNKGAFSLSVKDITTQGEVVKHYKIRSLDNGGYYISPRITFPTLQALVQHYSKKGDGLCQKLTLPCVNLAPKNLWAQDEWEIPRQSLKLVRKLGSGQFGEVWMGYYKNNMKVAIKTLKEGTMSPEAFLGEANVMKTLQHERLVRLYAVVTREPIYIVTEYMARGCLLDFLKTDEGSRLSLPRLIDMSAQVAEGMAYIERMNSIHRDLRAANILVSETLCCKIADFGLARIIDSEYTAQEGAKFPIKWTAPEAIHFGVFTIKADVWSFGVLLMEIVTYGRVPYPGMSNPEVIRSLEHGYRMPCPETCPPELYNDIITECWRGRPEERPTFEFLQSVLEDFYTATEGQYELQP
Sequence of Serine/threonine-protein kinase 24 (Q9Y6E0 whole entry): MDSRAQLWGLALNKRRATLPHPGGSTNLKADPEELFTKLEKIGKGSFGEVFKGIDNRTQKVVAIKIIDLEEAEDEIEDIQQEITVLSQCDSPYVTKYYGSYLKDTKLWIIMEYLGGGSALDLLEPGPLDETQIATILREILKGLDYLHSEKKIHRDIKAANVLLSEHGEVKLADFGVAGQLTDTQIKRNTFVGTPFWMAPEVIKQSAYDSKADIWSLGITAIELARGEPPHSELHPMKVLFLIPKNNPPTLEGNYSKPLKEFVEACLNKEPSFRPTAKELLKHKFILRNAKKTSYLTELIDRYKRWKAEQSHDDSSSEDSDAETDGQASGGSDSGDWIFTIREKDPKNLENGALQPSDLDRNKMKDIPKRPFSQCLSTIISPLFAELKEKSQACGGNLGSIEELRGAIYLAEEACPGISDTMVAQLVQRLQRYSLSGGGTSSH
Sequence of Tyrosine-protein kinase Fgr (P09769 whole entry): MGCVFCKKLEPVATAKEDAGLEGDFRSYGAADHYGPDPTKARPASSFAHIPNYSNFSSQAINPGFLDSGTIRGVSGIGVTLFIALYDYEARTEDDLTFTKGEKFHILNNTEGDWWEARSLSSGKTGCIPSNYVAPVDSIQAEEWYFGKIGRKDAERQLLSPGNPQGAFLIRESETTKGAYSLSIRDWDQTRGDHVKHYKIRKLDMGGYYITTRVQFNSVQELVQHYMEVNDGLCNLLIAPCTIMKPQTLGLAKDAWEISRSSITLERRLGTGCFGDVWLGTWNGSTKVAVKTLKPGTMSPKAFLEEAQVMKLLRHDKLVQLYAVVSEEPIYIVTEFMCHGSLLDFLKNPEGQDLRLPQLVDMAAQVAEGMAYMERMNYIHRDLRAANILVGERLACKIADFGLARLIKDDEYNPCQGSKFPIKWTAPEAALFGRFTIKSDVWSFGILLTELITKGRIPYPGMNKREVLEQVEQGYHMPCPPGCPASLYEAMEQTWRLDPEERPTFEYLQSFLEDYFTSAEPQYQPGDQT
Sequence of Misshapen-like kinase 1 (Q8N4C8 whole entry): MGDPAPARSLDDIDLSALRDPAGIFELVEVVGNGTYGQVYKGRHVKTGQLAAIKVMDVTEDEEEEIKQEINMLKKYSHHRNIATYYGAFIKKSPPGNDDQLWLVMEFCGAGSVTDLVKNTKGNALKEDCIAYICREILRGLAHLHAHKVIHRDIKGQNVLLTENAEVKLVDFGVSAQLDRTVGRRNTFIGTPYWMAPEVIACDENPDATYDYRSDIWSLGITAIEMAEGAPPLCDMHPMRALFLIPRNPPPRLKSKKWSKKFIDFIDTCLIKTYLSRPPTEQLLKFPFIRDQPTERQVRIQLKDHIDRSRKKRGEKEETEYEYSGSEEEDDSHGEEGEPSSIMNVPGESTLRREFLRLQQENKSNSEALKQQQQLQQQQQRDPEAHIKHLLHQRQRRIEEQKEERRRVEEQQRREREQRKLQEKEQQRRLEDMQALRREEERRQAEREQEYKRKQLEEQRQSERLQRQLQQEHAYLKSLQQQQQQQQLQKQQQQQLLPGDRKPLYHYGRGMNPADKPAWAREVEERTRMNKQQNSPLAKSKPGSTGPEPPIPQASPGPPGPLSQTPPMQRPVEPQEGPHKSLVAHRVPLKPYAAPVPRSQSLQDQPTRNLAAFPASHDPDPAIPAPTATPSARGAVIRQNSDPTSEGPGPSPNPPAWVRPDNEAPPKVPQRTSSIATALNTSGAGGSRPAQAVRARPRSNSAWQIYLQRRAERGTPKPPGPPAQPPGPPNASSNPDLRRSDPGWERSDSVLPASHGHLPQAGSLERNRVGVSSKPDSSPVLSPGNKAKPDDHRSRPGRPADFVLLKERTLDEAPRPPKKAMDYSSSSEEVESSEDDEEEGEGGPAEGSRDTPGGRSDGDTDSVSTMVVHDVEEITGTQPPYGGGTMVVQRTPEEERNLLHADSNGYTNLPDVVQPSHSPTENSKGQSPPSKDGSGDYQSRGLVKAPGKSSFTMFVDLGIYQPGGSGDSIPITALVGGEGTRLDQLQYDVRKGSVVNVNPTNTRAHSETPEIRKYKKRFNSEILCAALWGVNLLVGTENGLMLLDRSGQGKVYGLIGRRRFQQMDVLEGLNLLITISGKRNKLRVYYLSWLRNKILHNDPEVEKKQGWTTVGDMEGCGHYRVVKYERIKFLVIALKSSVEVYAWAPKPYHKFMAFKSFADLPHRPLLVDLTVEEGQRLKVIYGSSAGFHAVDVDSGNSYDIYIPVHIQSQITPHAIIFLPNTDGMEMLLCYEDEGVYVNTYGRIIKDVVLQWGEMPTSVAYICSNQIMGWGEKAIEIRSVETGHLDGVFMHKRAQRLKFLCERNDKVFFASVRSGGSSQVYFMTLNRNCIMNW
Sequence of Tyrosine-protein kinase CSK (P41240 whole entry): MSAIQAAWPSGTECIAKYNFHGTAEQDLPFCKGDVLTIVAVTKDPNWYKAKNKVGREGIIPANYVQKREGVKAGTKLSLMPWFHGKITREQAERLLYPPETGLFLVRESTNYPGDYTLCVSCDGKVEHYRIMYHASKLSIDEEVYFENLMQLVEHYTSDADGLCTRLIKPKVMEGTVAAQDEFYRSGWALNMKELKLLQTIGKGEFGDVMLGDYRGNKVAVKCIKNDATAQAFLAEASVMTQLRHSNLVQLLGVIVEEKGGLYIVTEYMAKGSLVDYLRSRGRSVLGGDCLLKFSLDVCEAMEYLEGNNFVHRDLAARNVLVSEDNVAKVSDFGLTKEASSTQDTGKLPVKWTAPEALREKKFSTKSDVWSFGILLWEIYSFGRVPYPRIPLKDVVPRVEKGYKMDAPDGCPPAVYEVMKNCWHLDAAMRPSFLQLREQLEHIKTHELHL
Sequence of Calcium/calmodulin-dependent protein kinase type II subunit gamma (Q13555 whole entry): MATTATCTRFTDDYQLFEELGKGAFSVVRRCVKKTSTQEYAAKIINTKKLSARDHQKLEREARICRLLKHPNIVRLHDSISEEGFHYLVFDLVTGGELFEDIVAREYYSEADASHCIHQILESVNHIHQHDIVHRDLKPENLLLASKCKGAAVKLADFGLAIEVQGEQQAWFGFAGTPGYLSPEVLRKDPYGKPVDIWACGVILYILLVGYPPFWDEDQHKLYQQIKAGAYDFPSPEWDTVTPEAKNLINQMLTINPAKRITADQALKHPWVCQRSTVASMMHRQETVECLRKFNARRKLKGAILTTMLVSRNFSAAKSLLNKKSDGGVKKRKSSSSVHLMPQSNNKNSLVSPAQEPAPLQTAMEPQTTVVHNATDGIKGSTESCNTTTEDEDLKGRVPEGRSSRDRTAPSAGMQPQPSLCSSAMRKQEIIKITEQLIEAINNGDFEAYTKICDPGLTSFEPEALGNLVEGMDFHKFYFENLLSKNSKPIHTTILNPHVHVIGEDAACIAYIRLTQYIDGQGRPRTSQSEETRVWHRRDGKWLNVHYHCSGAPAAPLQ

Turning to `COc1cc(Nc2c(C#N)cnc3cc(OCCCN4CCN(C)CC4)c(OC)cc23)c(Cl)cc1Cl` [BOSUTINIB], the IC50 in test [1] came out at 471 nM; in test [2], 0.5 nM; in test [3], 2.5 nM; against Activated CDC42 kinase 1, 2.7 nM; in [4] it was 3.2 nM; in test [5], 282 nM. Further, the IC50 in test [6] amounted to 2.2 nM; in test [7], 63 nM; in [8], 1.1 nM; in test [9] it was 40 nM; at Misshapen-like kinase 1, 22 nM; in test [10] it was 27 nM. For the same compound, the IC50 in [11] was found to be 574 nM; in [12], 7.3 nM; in [13], 184 nM; in test [14], 22 nM; against Angiopoietin-1 receptor [15], 1190 nM; in test [16], 9.9 nM. Besides, the IC50 in test [17] was determined as 3.9 nM; in [18], 0.3 nM; in test [19], 134 nM.
For the compound `Cc1nc(Nc2ncc(C(=O)Nc3c(C)cccc3Cl)s2)cc(N2CCN(CCO)CC2)n1` [DASATINIB], the residual activity was found to be 35% in test [20]; 84% in [21]; 52% in [22]; 48% at Angiopoietin-1 receptor [23]; 86% in test [24]; 83% in test [25]. Further, in [12], the IC50 amounted to 8 nM.
